Drawing on patent US11591336B2 (Relay Therapeutics, Inc., priority 2017, dated 2023), this text covers IC50 for 19 compounds.

Sequence of SHP2 (Q06124 whole entry): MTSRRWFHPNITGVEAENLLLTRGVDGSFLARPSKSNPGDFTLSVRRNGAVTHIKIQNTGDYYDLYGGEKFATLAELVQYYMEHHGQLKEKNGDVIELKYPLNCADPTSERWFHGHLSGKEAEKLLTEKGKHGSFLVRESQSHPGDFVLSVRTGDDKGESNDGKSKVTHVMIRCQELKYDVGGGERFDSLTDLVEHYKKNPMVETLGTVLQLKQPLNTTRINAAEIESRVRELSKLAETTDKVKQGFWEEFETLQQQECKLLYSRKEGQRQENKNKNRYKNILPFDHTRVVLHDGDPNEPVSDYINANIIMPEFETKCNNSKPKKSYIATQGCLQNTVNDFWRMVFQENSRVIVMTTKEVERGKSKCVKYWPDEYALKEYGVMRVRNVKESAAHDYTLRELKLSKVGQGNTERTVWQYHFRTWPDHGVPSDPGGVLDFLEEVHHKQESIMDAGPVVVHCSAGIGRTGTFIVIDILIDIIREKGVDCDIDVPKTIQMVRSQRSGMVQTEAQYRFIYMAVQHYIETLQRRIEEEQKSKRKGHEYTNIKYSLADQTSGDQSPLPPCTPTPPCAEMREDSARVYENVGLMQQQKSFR

The experiment addresses SHP2 (Homo sapiens (Human), UniProt Q06124). As to the kind of experiment: SHP2 Allosteric Inhibition Assay (DiFMUP prompt fluorescence). It counts as biochemical. The following applies: 0.25 nM SHP2 activated with 0.5 μM peptide IRS1_pY1172(dPEG8)pY1222; substrate DiFMUP 100 μM; 25° C.
Consider `C[C@@H]1OCC2(CCN(c3cnc4c(N5CCc6cc(-c7cnn(C)c7)ccc6C5)n[nH]c4n3)CC2)[C@@H]1N` [Compound 338], for which the 50% inhibitory concentration (IC50) was < 1 µM.
Next, `Cc1cnc(-c2ccc3c(n2)CCCN3c2n[nH]c3nc(N4CCC5(CC4)CO[C@@H](C)[C@H]5N)cnc23)s1` [Compound 382]: < 1 µM.
Regarding `CC1(CN)CCN(c2cnc3c(N4CCCc5c(F)cccc54)n[nH]c3n2)CC1` [Compound 52], the concentration for half-maximal inhibition (IC50) is < 1 µM.
With `C[C@@H]1OCC2(CCN(c3cnc4c(N5CC[C@H](C)c6c5ccc(C#N)c6F)n[nH]c4n3)CC2)[C@@H]1N` (single isomer, unassigned) [Compound 230], the concentration for half-maximal inhibition (IC50) was < 1 µM.
The figure for `Cn1cc(-c2nccc(Oc3n[nH]c4nc(N5CCC(C)(CN)CC5)cnc34)c2Cl)cn1` [Compound 506, (1-(3-((3-chloro-2-(1-methyl-1H-pyrazol-4-yl)pyridin-4-yl)oxy)-1H-pyrazolo[3,4-b]pyrazin-6-yl)-4-methylpiperidin-4-yl)methanamine] is < 1 µM; for `C[C@@H]1C[C@@H](CN)CCN1c1cnc2c(N3CCCc4ncccc43)n[nH]c2n1` (racemic) [Compound 104, ((2R,4S)-1-(3-(3,4-dihydro-1,5-naphthyridin-1(2H)-yl)-1H-pyrazolo[3,4-b]pyrazin-6-yl)-2-methylpiperidin-4-yl)methanamine] it is < 1 µM; for `C[C@@H]1OCC2(CCN(c3cnc4c(N5CCCc6c(CCO)cccc65)n[nH]c4n3)CC2)[C@@H]1N` [Compound 435] it is < 1 µM.
As for `CC1(CN)CCN(c2cnc3c(N4CCNc5ccccc54)n[nH]c3n2)CC1` [Compound 190], the IC50 was < 1 µM.
Next, `CCS(=O)(=O)c1cccc2c1CCCN2c1n[nH]c2nc(N3CCC4(CC3)CO[C@@H](C)[C@H]4N)cnc12` [Compound 368]: < 1 µM; `CC1(N)CCN(c2cnc3c(NCc4ccccc4)n[nH]c3n2)CC1` [Compound 473, 6-(4-amino-4-methyl-1-piperidyl)-N-benzyl-1H-pyrazolo[3,4-b]pyrazin-3-amine]: 1 to 10 µM.
As for `C[C@@H]1OCC2(CCN(c3cnc4c(N5CCN([C@@H]6CCOC6)c6cc(C#N)ccc65)n[nH]c4n3)CC2)[C@@H]1N` [Compound 403], the concentration for half-maximal inhibition (IC50) is < 1 µM.
Turning to `Cn1cc(-c2ccc3c(n2)CCCN3c2n[nH]c3nc(N4CCC(C)(CN)CC4)cnc23)cn1` [Compound 182], the IC50 was < 1 µM.
For `C[C@@H]1OCC2(CCN(c3cnc4c(N5CCCc6nc(O)ccc65)n[nH]c4n3)CC2)[C@@H]1N` [Compound 378], the half-maximal inhibitory concentration (IC50) was < 1 µM.
Take `C[C@@H]1OCC2(CCN(c3cnc4c(N5CCCc6nc(-c7cncnc7)ccc65)n[nH]c4n3)CC2)[C@@H]1N` [Compound 304]: the IC50 is < 1 µM.
On to `C[C@@H]1OCC2(CCN(c3cnc4c(N5CCCc6c5ccnc6-c5cn[nH]c5)n[nH]c4n3)CC2)[C@@H]1N` [Compound 289], for which the 50% inhibitory concentration (IC50) was < 1 µM.
As for `COCCn1cc(-c2ccc3c(n2)CCCN3c2n[nH]c3nc(N4CCC5(CC4)CO[C@@H](C)[C@H]5N)cnc23)cn1` [Compound 333, (3S,4S)-8-(3-{6-[1-(2-methoxyethyl)-1H-pyrazol-4-yl]-1,2,3,4-tetrahydro-1,5-naphthyridin-1-yl}-1H-pyrazolo[3,4-b]pyrazin-6-yl)-3-methyl-2-oxa-8-azaspiro[4.5]decan-4-amine], the IC50 was < 1 µM.
Regarding `CC1(CN)CCN(c2cnc3c(N4CCCc5c(-c6ccccc6)cccc54)n[nH]c3n2)CC1` [Compound 65], the IC50 is < 1 µM.
With `Cc1nccc(Oc2n[nH]c3nc(N4CCC(C)(CN)CC4)cnc23)c1Cl` [Compound 504, (1-(3-((3-chloro-2-methylpyridin-4-yl)oxy)-1H-pyrazolo[3,4-b]pyrazin-6-yl)-4-methylpiperidin-4-yl)methanamine], the half-inhibitory concentration (IC50) was < 1 µM.
Take `COCc1cccc2c1CCCN2c1n[nH]c2nc(N3CCC4(CC3)CO[C@@H](C)[C@H]4N)cnc12` [Compound 390]: the 50% inhibitory concentration (IC50) was < 1 µM.
